Test results taken from article PMC5220080, “Modulating Beta-Cardiac Myosin Function at the Molecular and Tissue Levels” (Frontiers in Physiology, 2017).

Columns and labels:
[1] = target: T1, human beta-cardiac myosin subfragment 1 (M2β-S1) (Homo sapiens, UniProt P12883); assay: stopped-flow mant fluorescence, release from acto-M2β-S1 on mixing with ATP (rate constant without pN-Bleb); type: binding; parameters: gene MYH7; subfragment 1, amino acids 1–843, N-terminal FLAG tag, C-terminal Avi tag; with actin; settings: read-out: stopped-flow mant fluorescence, release from acto-M2β-S1 on mixing with ATP (rat)
[2] = target: T1, human beta-cardiac myosin subfragment 1 (M2β-S1); assay: actin-activated ATPase (NADH-linked assay); also in vitro motility (IC50 […]); type: biochemical; parameters: gene MYH7; subfragment 1, amino acids 1–843, N-terminal FLAG tag, C-terminal Avi tag
[3] = target: T2, skeletal muscle heavy meromyosin (Sk HMM); assay: as above; type: biochemical
T2 construct: heavy meromyosin, prepared from rabbit psoas muscle (Results text says chicken)

T1 sequence (P12883 1-843): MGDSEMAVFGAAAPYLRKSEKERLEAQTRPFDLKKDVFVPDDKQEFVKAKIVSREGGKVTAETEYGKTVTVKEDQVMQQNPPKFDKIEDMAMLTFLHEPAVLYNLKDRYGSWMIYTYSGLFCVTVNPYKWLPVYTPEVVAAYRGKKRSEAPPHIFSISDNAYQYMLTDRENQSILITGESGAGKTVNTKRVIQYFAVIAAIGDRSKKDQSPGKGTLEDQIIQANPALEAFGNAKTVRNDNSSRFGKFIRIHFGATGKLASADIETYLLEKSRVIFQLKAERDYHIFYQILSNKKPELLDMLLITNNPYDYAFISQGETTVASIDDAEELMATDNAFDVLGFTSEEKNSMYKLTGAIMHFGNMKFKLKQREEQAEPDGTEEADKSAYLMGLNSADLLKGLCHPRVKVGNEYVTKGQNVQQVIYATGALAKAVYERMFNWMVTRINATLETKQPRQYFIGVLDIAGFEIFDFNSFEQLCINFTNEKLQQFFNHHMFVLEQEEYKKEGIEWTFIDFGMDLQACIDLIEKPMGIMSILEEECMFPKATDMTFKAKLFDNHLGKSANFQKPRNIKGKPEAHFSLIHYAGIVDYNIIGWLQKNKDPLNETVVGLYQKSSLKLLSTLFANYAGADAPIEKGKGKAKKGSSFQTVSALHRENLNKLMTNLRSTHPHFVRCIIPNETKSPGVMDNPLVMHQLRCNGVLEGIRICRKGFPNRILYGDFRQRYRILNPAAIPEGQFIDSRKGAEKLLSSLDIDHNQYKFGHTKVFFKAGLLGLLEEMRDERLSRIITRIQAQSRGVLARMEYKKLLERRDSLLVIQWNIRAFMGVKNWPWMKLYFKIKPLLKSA

koff [1] | IC50 [2] | IC50 [3] | SMILES
229 ± 6.5 s⁻¹ |  |  | CNc1ccccc1C(=O)O[C@H]1C[C@H](n2cnc3c(N)ncnc32)O[C@@H]1COP(=O)(O)OP(=O)(O)O
 | 12.3 ± 1.8 µM | 430 ± 110 nM | Cc1ccc2c(c1)C(=O)[C@]1(O)CCN(c3ccc([N+](=O)[O-])cc3)C1=N2 [pN-Bleb, para-Nitroblebbistatin]
